Source: patent publication US20120142730A1 (priority 2010, published 2012)
Read-outs that look alike come from different tables or passages of the source.

What was measured:
[1] = system: subjects with relapsing remitting multiple sclerosis (RRMS); test: ALLEGRO phase III trial: disability endpoints (EDSS, MSFC); type: in vivo, human; settings: for Patients with confirmed (3 months) EDSS progression: after 24 months
Procedure: Eligible subjects were equally randomized 1:1 into one of the following treatment arms: • 1. […] 21, 2007 (see, page 10, line 5 to page 11, line 3). • 2. Matching placebo for laquinimod arm: one capsule is administered once daily. Secondary endpoints were disability progression as measured by the EDSS and the Multiple Sclerosis Functional Composite (MSFC). Confirmed disability progression was defined as an increase of ≧1.0 EDSS point from baseline if baseline EDSS was between 0 and 5.0, or an increase of ≧0.5 point if baseline EDSS was ≧5.5. In order to confirm EDSS progression, these increases had to be sustained for at least three months. Additional predefined disability endpoints include the proportion of patients without confirmed disability progression at 24 months; confirmed disability progression (defined as change in EDSS scores≧1.0 points for baseline EDSS 0 to 5.0 or ≧5.5) sustained for six months; the accumulation of physical disability as measured by mean EDSS and the mean change in EDSS from baseline to last observed value (LOV). For the MSFC, the measure was the total MSFC z score at 24 months (including patients who terminated after 12 months). The 9-hole peg test (9HPT) and the Paced Auditory Serial Addition Test (PASAT) were performed three times at screening to reduce confounding training effects during the trial. The analysis of the accumulation of physical disability is based on Cox's Proportional Hazard model. The analysis of MSFC is based on baseline-adjusted Analysis of Covariance. The analysis of the secondary MRI endpoints is based on baseline-adjusted Negative Binomial Regression. To control against type-I error, the secondary endpoints were analyzed only after a significant effect was found for the primary endpoint. Likewise, the study's overall type-I error was further controlled in the analysis of the secondary endpoints by applying the following gate-keeping approach: both the cumulative number of new/enlarging T2 and the cumulative number of GdE lesions at months 12 and 24 were tested simultaneously and needed to be statistically significant at p<0.05, or one needed to be significant at p<0.025 if the other endpoint was not statistically significant at the 5% level. If the above condition was met, the study then proceeded to the analysis of the confirmed EDSS progression endpoint, if this endpoint was significant at 5% level, the analysis was done for the total MSFC z-scores. The analysis of risk to confirmed disability progression using the ITT cohort was based on Cox's Proportional Hazard model adjusted to baseline EDSS, log of the prior 2 year number of relapses +1 and geographical region. The MSFC at month 24 was analyzed using a baseline-adjusted ANCOVA (SAS@PROC GLM) with baseline MSFC as 1 degree of freedom covariate and baseline EDSS score, log of the 2-year prior relapse rate +1 and country or geographical region as additional covariates.

[2] = system: subjects with relapsing remitting multiple sclerosis (RRMS); test: ALLEGRO (MS-LAQ-301) phase III trial: confirmed relapse endpoints; type: in vivo, human; design: key to Annualized relapse rate, adjusted mean (SE): ARR = number of relapses divided by total patient exposure; settings: for Annualized relapse rate, adjusted mean (SE): 24-month treatment period
From the text: The primary endpoint of the study was the number of confirmed relapses during the double-blind treatment period, which corresponds to the annualized relapse rate (ARR—number of relapses divided by total exposure of all patients). Secondary endpoints included disability as measured by Expanded Disability Status Scale (EDSS) changes confirmed at 3 months, and cumulative number of gadolinium enhancing (GdE) and new/enlarging T2 MRI lesions. Eligible subjects were equally randomized 1:1 into one of the following treatment arms: • 1. […] 21, 2007 (see, page 10, line 5 to page 11, line 3). • 2. Matching placebo for laquinimod arm: one capsule is administered once daily. The primary endpoint was the number of confirmed relapses during the double-blind study period. A relapse was defined as the appearance of one or more new neurological abnormalities or the reappearance of one or more previously observed neurological abnormalities lasting for at least 48 hours and after an improved neurological state for at least 30 days. An event was counted as a relapse if the subject's symptoms were accompanied by observed objective neurological changes consistent with at least one of the following: an increase of at least 0.5 in the EDSS score; an increase of one grade in two or more of the seven functional systems; or an increase of two grades in one functional system. Standardized treatment of relapses was intravenous methylprednisolone 1 g/day for up to five consecutive days based on the treating neurologist's decision. The analysis of the total number of confirmed relapses during the study period is based on baseline adjusted Quasi-Likelihood (over-dispersed) Poisson Regression. Using the Poisson regression with the treatment group as a covariate, the ARR of each group was calculated for the intent-to-treat (ITT) cohort as the total number of confirmed relapses for all patients in each group divided by the total patient years in that group. In addition to the treatment group, the following covariates were included: baseline EDSS score, log of the (prior 2-year number of relapses +1) and country or geographical region.

relapsing MS = settings: cited from earlier work; for Development of active MRI lesions in relapsing MS: Polman, 2005
[3] = 0.6 mg daily oral, listed as laquinimod
[4] = 0.6 mg daily oral vs placebo, 24 months
[5] = post-hoc, vs placebo, listed as laquinimod

In the case of `CCN(C(=O)c1c(O)c2c(Cl)cccc2n(C)c1=O)c1ccccc1` [Laquinimod, laquinimod], the “Median EDSS score at LOV” value ([1]; 0.6 mg daily oral) is reported as 2.5, the “Decrease in the risk for 6 month confirmed EDSS progression” value ([1]; 0.6 mg daily oral vs placebo) is reported as 48% and the “Reduction in risk of confirmed progression requiring persistence of EDSS change at the last available visit” value ([1]; 0.6 mg daily oral vs placebo) is reported as 35%. The “Time to confirmed (3 Ms) progression EDSS: reduction of risk to progress” value ([1]; 0.6 mg daily oral vs placebo) was 36% reduction of risk, the “Adjusted mean total MSFC z score at 24 months, difference from placebo” value ([1]; 0.6 mg daily oral vs placebo, p=0.5893) was “no significant differences” and the “Time to confirmed (3 Ms) progression EDSS: reduction of risk to progress” value ([1]; 0.6 mg daily oral vs placebo, listed as laquinimod) was 36%. For the same molecule, the “Patients with confirmed (3 months) EDSS progression” value ([1]; 0.6 mg daily oral) was 9.8% progressed, the “Patients with confirmed (3 months) EDSS progression” value [1, 3] was 9.8% and the “Mean EDSS score at LOV” value ([1]; 0.6 mg daily oral, baseline adjusted ANCOVA) was 2.68. The “Patients with no confirmed disability progression at LOV” value ([1]; 0.6 mg daily oral, n = 550) was “(90.2%)”, the “Patients with no confirmed disability progression at LOV, number” value ([1]; 0.6 mg daily oral, n = 550) was 496 and the “MSFC total z score at 24 months (including early terminations after 12 months), mean” value [1, 3] was 0.056. The “Patients who progressed and also had a relapse during the study” value ([1]; post-hoc subgroup analysis, 33/54 patients) was 61.1%, the “Annualized rate of relapses requiring hospitalization and/or IV steroids, reduction” value ([2]; 0.6 mg daily oral vs placebo) was 27% reduction and the “Increase in the time to first relapse” value ([2]; 0.6 mg daily oral vs placebo) was 28.2%. The “Time to 1st confirmed relapse: reduction for the risk of 1st confirmed relapse” value ([2]; 0.6 mg daily oral vs placebo) was 28% reduction for the, the “Annualized relapse rate, reduction” value [2, 4] was 23% reduction and the “Increase in odds to be relapse free” value [2, 4] was 55% increase odds to. The “Increase in odds to be relapse free” value ([2]; 0.6 mg daily oral vs placebo, 24 months, listed as laquinimod) was 55%, the “Annualized relapse rate, adjusted mean (SE)” value ([2]; 0.6 mg daily oral) was 0.304 and the “Annualized relapse rate, adjusted mean (SE)” value [2, 3] was 0.304±0.022. For the same molecule, the “Annualized rate of relapses requiring hospitalization and/or IV steroids, adjusted mean” value ([2]; 0.6 mg daily oral, 24 months) was 0.242, the “Relapse-free during study, adjusted proportion” value ([2]; 0.6 mg daily oral, 24 months) was 62.90% and the “Relapse-free during study, adjusted proportion” value ([2]; 0.6 mg daily oral, 24 months, listed as laquinimod) was 62.9%. For the same molecule, the “ARR 1st year” value ([2]; post-hoc, 0.6 mg daily oral) was 0.343, the ARR for dropouts ([2]; post-hoc, 0.6 mg daily oral) was 0.640 and the “Annualized rate of relapses requiring IV steroids” value ([2]; post-hoc, 0.6 mg daily oral) was 0.263. For the same molecule, the “Annualized rate of relapses requiring hospitalization” value ([2]; post-hoc, 0.6 mg daily oral) was 0.071, the “Relapses with full recovery (EDSS before and after attack)” value ([2]; post-hoc, 0.6 mg daily oral) was 0.155 and the “Relapses with no recovery (EDSS before and after attack)” value ([2]; post-hoc, 0.6 mg daily oral) was 0.06. The Unconfirmed relapses ([2]; post-hoc, 0.6 mg daily oral) was 0.094, the “ARR by median relapse duration” value ([2]; post-hoc, relapse duration >34 days (n~100)) was 0.964 and the “ARR by median relapse duration, reduction” value ([2]; post-hoc, relapse duration >34 days (n~100), vs placebo) was 1.3% reduction. For the same molecule, the “ARR by median relapse duration” value ([2]; post-hoc, relapse duration ≦34 days) was 0.153, the “ARR by median relapse duration, reduction” value ([2]; post-hoc, relapse duration ≦34 days, vs placebo) was 37% reduction and the “ARR 1st year, reduction” value ([2]; post-hoc, vs placebo) was 24% reduction. The “ARR for dropouts, reduction” value ([2]; post-hoc, vs placebo) was 26% reduction, the “Relapses requiring IV steroids, reduction” value ([2]; post-hoc, vs placebo) was 27% reduction and the “Relapses requiring hospitalization, reduction” value ([2]; post-hoc, vs placebo) was 38% reduction. For the same molecule, the “Relapses with full recovery, reduction” value ([2]; post-hoc, vs placebo) was 13% reduction, the “Relapses with no recovery, reduction” value ([2]; post-hoc, vs placebo) was 24% reduction and the “Unconfirmed relapses, reduction” value ([2]; post-hoc, vs placebo) was 17% reduction. For the same molecule, the “Relapses requiring IV steroids, reduction” value [2, 5] was 27%, the “Relapses requiring hospitalization, reduction” value [2, 5] was 38% and the “MRI and clinical effect as compared to placebo” value (relapsing MS; 0.3 mg/day oral dose, Comi, 2007) was “neither MRI nor clinical effect”. For the same molecule, the “Development of active MRI lesions in relapsing MS” value (relapsing MS; 0.3 mg/day oral dose) was “reduce development of active MRI lesions” and the “Development of active MRI lesions in relapsing MS” value (relapsing MS) was “reduce development of active MRI lesions”.
